Target: human PDE10A2 (Homo sapiens (Human), UniProt Q9Y233)
Test: PDE10 fluorescence polarization (IMAP FP) inhibition assay
Format: biochemical
Conditions: human PDE10A2 from transfected AD293 cell lysate; FAM-labeled cAMP 50 nM; room temperature; read-out: PDE10A Ki
Method: The activity of the compounds in accordance with the present invention as PDE10 inhibitors may be readily determined without undue experimentation using a fluorescence polarization (FP) methodology that is well known in the art (Huang, W., et al., J. Biomol Screen, 2002, 7: 215).
In a typical experiment the PDE10 inhibitory activity of the compounds of the present invention was determined in accordance with the following experimental method. PDE10A2 was amplified from human fetal brain cDNA (Clontech, Mountain View, Calif.) using a forward primer corresponding to nucleotides 56-77 of human PDE10A2 (Accession No. AF127480, Genbank Identifier 4894716), containing a Kozak consensus sequence, and a reverse primer corresponding to nucleotides 2406-2413 of human PDE10A2 (Accession No. AF127480, Genbank Identifier 4894716). Amplification with Easy-A polymerase (Stratagene, La Jolla, Calif.) was 95° C. for 2 minutes followed by thirty three cycles of 95° C. for 40 seconds, 55° C. for 30 seconds, and 72° C. for 2 minutes 48 seconds. Final extension was 72° C. for 7 minutes. The PCR product was TA cloned into pcDNA3.2-TOPO (Invitrogen, Carlsbad, Calif.) according to standard protocol. AD293 cells with 70-80% confluency were transiently transfected with human PDE10A2/pcDNA3.2-TOPO using Lipofectamine 2000 according to manufacturer specifications (Invitrogen, Carlsbad, Calif.). Cells were harvested 48 hours post-transfection and lysed by sonication (setting 3, 10×5 sec pulses) in a buffer containing 20 mM HEPES, 1 mM EDTA and protease inhibitor cocktail (Roche). Lysate was collected by centrifugation at 75,000×g for 20 minutes. Supernatant containing the cytoplasmic fraction was used for evaluation of PDE10A2 activity. The fluorescence polarization assay for cyclic nucleotide phosphodiesterases was performed using an IMAP® FP kit supplied by Molecular Devices, Sunnyvale, Calif. (product #R8139). IMAP® technology has been applied previously to phosphodiesterase assays (Huang, W., et al., J. Biomol Screen, 2002, 7: 215). Assays were performed at room temperature in 384-well microtiter plates with an incubation volume of 20.2 μL. Solutions of test compounds were prepared in DMSO and serially diluted with DMSO to yield 8 μL of each of 10 solutions differing by 3-fold in concentration, at 32 serial dilutions per plate. 100% inhibition is determined using a known PDE10 inhibitor, which can be any compound that is present at 5,000 times its Ki value in the assay described as follows, such as papaverine (see Siuciak, et al. Neuropharmacology (2006) 51:386-396; Becker, et al. Behav Brain Res (2008) 186(2):155-60; Threlfell, et al., J Pharmacol Exp Ther (2009) 328(3):785-795), 2-[4-[pyridin-4-yl-1-(2,2,2-trifluoroethyl)-1H-pyrazol-3-yl]phenoxymethyl]quinoline succinic acid or 2-[4-(1-methyl-4-pyridin-4-yl-1H-pyrazol-3-yl)-phenoxymethyl]quinoline succinic acid (see Schmidt, et al. J Pharmacol Exp Ther (2008) 325:681-690; Threlfell, et al., J Pharmacol Exp Ther (2009) 328(3): 785-795). 0% of inhibition is determined by using DMSO (1% final concentrations). A Labcyte Echo 555 (Labcyte, Sunnyvale, Calif.) is used to dispense 200 nL from each well of the titration plate to the 384 well assay plate. A solution of enzyme (1/7000 dilution from aliquots; sufficient to produce 20% substrate conversion) and a separate solution of FAM-labeled cAMP PDE from Molecular Devices (product #R7506), at a final concentration of 50 nM are made in the assay buffer (10 mM Tris HCl, pH 7.2, 10 mM MgCl2, 0.05% NaN3 0.01% Tween-20, and 1 mM DTT). The enzyme is added to the assay plates by the addition of 10 μL of enzyme solution to each well, shaken to mix and incubated at room temperature for 60 minutes. The substrate is then added to the assay plates by the addition of 10 uL of substrate solution to each well, shaken to mix, and incubated at room temperature for 60 minutes. […]

Sequence of human PDE10A2 (Q9Y233 267-1055): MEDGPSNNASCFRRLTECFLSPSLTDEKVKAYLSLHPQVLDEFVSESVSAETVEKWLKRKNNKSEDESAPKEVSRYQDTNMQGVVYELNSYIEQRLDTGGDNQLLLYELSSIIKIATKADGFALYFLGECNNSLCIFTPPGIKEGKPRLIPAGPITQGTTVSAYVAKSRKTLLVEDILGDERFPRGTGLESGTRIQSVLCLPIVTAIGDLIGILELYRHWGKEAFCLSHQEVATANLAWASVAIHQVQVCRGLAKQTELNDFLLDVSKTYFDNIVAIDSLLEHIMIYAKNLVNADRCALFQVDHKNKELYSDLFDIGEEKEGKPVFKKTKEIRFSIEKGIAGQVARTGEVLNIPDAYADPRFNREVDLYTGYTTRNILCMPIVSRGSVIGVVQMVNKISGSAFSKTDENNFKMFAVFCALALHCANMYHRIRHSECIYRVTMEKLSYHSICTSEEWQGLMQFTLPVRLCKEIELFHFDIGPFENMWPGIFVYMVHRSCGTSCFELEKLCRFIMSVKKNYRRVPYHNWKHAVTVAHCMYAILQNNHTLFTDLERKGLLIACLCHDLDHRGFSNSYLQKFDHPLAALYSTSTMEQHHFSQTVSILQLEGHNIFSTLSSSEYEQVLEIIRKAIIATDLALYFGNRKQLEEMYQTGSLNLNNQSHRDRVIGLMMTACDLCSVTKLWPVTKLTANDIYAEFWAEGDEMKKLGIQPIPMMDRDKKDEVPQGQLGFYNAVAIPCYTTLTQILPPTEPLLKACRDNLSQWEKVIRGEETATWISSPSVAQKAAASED

Row | SMILES | Ki [nM]
1 | COc1ccc([C@H]2C[C@@H]2COc2nc(C)ncc2C2=CCC(O)CC2)nc1 (stereo partly drawn) [1-31, 4-(4-{[(1S,2S)-2-(5-methoxypyridin-2-yl)cyclopropyl]methoxy}-2-methylpyrimidin-5-yl)cyclohex-3-en-1-ol] | 0.15
2 | COc1ccc([C@H]2C[C@@H]2COc2nc(C)c(C)nc2-c2cncc(OC)c2)nc1 [1-36, 2-(5-methoxypyridin-3-yl)-3-{[(1S,2S)-2-(5-methoxypyridin-2-yl)cyclopropyl]methoxy}-5,6-dimethylpyrazine] | 0.22
3 | COc1ccc([C@H]2C[C@@H]2COc2ncc(C)cc2-c2cnn3c2CCC3)nc1 [1-39, 3-(2-{[(1S,2S)-2-(5-methoxypyridin-2-yl)cyclopropyl]methoxy}-5-methylpyridin-3-yl)-5,6-dihydro-4H-pyrrolo[1,2-b]pyrazole] | 0.34
4 | Cn1cc(-c2cc3ccncc3nc2OC[C@H]2C[C@@H]2c2ccc3ncccc3n2)cn1 [1-42, 2-[(1S,2S)-2-({[3-(1-methyl-1H-pyrazol-4-yl)-1,7-naphthyridin-2-yl]oxy}methyl)cyclo-propyl]-1,5-naphthyridine] | 0.04
5 | Cc1ncc(-c2c(C)nn(C)c2C)c(OC[C@H]2C[C@@H]2c2ccc3ccccc3n2)n1 [1-46, 2-[(1S,2S)-2-({[2-methyl-5-(1,3,5-trimethyl-1H-pyrazol-4-yl)pyrimidin-4-yl]oxy}methyl)cyclopropyl]quinoline] | 0.002
6 | Cc1ncc(-c2cnn(C)c2)c(OC[C@H]2C[C@@H]2c2ccn(C)n2)n1 [1-54, 2-methyl-5-(1-methyl-1H-pyrazol-4-yl)-4-{[(1S,2S)-2-(1-methyl-1H-pyrazol-3-yl)cyclopropyl]methoxy}-pyrimidine] | 3.2
7 | COc1ccc([C@H]2C[C@@H]2COc2nc(C)ncc2-c2nnc(C3CC3)s2)nc1 [1-55, 5-(5-cyclopropyl-1,3,4-thiadiazol-2-yl)-4-{[(1S,2S)-2-(5-methoxypyridin-2-yl)cyclopropyl]methoxy}-2-methylpyrimidine] | 4.2
8 | COc1ccc([C@H]2C[C@@H]2COc2nc(C)ncc2-c2csc(C)n2)nc1 [1-57, 4-{[(1S,2S)-2-(5-methoxypyridin-2-yl)cyclopropyl]methoxy}-2-methyl-5-(2-methyl-1,3-thiazol-4-yl)pyrimidine] | 0.78
9 | COc1ccc([C@H]2C[C@@H]2COc2nc(C)ncc2-c2ccc(C)nc2)nc1 [1-73, 4-{[(1S,2S)-2-(5-methoxypyridin-2-yl)cyclopropyl]methoxy}-2-methyl-5-(6-methylpyridin-3-yl)pyrimidine] | 0.8
10 | COc1ccc([C@H]2C[C@@H]2COc2nc3cccnc3cc2-c2cnn(CCO)c2)nc1 [LL3, 2-[4-(2-{[(1S,2S)-2-(5-methoxypyridin-2-yl)cyclopropyl]methoxy}-1,5-naphthyridin-3-yl)-1H-pyrazol-1-yl]ethanol] | 0.23
11 | COc1ccc([C@H]2C[C@@H]2COc2nc(C)ncc2-c2cnn(C)c2)nc1 [MM4, 4-{[(1S,2S)-2-(5-methoxypyridin-2-yl)cyclopropyl]methoxy}-2-methyl-5-(1-methyl-1H-pyrazol-4-yl)pyrimidine] | 0.25
12 | COc1ccc([C@H]2C[C@@H]2COc2nc3cccnc3cc2C2CCCN(C(C)=O)C2)nc1 (stereo partly drawn) [RR4, 1-[3-(2-{[(1S,2S)-2-(5-methoxypyridin-2-yl)cyclopropyl]methoxy}-1,5-naphthyridin-3-yl)piperidin-1-yl]ethanone] | 2.5
13 | COc1ccc([C@H]2C[C@@H]2COc2nc(C)ncc2CN2CCC(F)(F)C2)nc1 [SS1, 5-[(3,3-difluoropyrrolidin-1-yl)methyl]-4-{[(1S,2S)-2-(5-methoxypyridin-2-yl)cyclopropyl]methoxy}-2-methylpyrimidine] | 60.8
14 | COc1ccc([C@H]2C[C@@H]2COc2nc(C)ncc2/C=C/c2cccnc2)nc1 [TT1, 4-{[(1S,2S)-2-(5-methoxypyridin-2-yl)cyclopropyl]methoxy}-2-methyl-5-[(E)-2-(pyridin-3-yl)ethenyl]pyrimidine] | 0.6
